Patent US7312231B2, “Quinuclidine carbamate derivatives and their use as M3 antagonists” (priority 2000, dated 2007)

Target: T1, human muscarinic M3 receptors (Homo sapiens, UniProt P20309)
T1 construct: expressed in transfected cells; host or cells: Chinese hamster ovary-K1 (CHO) cells, membrane preparations
Assay: biochemical
Assay type: binding
Settings: not given
Description: The binding of [^3H]-NMS to human muscarinic receptors was performed according to Waelbroek et al (1990), Mol. Pharmacol., 38:267–273. Assays were carried out at 25° C. Membrane preparations from stably transfected Chinese hamster ovary-K1 cells (CHO) expressing the genes for the human muscarinic M3 receptors were used.
For determination of IC50, membrane preparations were suspended in DPBS to a final concentration of 89 μg/ml for the M3 subtype. The membrane suspension wasincubated with the tritiated compound for 60 min. After incubation the membrane fraction was separated by filtration and the bound radioactivity determined. […] At least six concentrations were assayed in duplicate to generate individual displacement curves.

T1 sequence (P20309 whole entry): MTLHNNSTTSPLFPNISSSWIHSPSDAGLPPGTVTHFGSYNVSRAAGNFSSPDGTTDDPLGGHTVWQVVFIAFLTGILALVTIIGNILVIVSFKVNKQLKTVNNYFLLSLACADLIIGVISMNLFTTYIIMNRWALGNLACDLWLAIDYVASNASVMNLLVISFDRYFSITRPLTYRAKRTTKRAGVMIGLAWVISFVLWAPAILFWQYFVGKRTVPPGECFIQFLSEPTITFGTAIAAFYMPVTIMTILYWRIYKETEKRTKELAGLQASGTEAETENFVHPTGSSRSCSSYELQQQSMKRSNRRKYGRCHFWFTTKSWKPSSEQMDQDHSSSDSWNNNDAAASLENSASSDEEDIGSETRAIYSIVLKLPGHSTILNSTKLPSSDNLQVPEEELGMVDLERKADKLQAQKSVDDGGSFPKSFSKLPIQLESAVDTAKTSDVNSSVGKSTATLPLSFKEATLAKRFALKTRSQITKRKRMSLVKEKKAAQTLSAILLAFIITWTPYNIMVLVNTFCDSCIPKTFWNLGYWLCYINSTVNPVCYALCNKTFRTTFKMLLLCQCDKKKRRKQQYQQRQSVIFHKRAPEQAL

Compound | IC50 [nM]
CCCCCN(C(=O)O[C@H]1CN2CCC1CC2)c1ccccc1 [Example 104, Pentylphenylcarbamic acid 1-azabicyclo[2.2.2]oct-3-(R)yl ester] | 19

Same assay, conditions: [3H]-NMS displacement, membranes of CHO-K1 cells expressing human M3, 25° C., 60 min; read-out: BINDING TO RECPTOR M3 (IC50 nM)

Compound | IC50 [nM]
O=C(O[C@H]1CN2CCC1CC2)N(Cc1ccco1)c1ccccc1 [Example 153, Furan-2-ylmethylphenylcarbamic acid 1-azabicyclo[2.2.2]oct-3-(R)yl ester] | 6
O=C(O[C@H]1C[N+]2(CCOc3ccccc3)CCC1CC2)N(Cc1ccccc1)c1ccccc1 [Example 32, 3-(R)(Benzylphenylcarbamoyloxy)-1-(2-phenoxyethyl)-1-azoniabicyclo[2.2.21 octane; bromide] | 8
1-Allyl-3-(R)(phenylthiophen-2-ylmethylcarbamoyloxy)-1-azoniabicyclo [2.2.2]octane; bromide [Example 92] | 11.5
O=C(O[C@H]1C[N+]2(CCOc3ccccc3)CCC1CC2)N(Cc1cccs1)c1ccccc1 [Example 91, 1-(2-Phenoxyethyl)-3-(R)(phenylthiophen-2-ylmethylcarbamoyloxy)-1-azonia bicyclo[2.2.2]octane; bromide] | 6.8
O=C(O[C@H]1C[N+]2(CC=Cc3ccccc3)CCC1CC2)N(Cc1ccccc1)c1ccccc1.[Br-] [Example 5, 3-(R)(Benzylphenylcarbamoyloxy)-1-(3-phenylallyl)-1-azoniabicyclo[2.2.2]octane; bromide] | 11.1
C=CC[N+]12CCC(CC1)[C@@H](OC(=O)N(Cc1ccccc1)c1ccccc1)C2.[Br-] [Example 6, 1-Allyl-3-(R)(benzylphenylcarbamoyloxy)-1-azoniabicyclo[2.2.2]octane; bromide] | 18
O=C(O[C@H]1CN2CCC1CC2)N(Cc1ccsc1)c1ccccc1 [Example 126, Phenylthiophen-3-ylmethylcarbamic acid 1-azabicyclo[2.2.2]oct-3-(R)yl ester] | 8.6
O=C(O[C@H]1C[N+]2(CCCc3cccs3)CCC1CC2)N(Cc1cccs1)c1ccccc1 [Example 90, 3-(R)(phenylthiophen-2-ylmethylcarbamoyloxy)-1-(3-thiophen-2-ylpropyl)-1-azoniabicyclo[2.2.2]octane; bromide] | 9.2
O=C(O[C@H]1C[N+]2(CCCc3ccccc3)CCC1CC2)N(Cc1cccs1)Cc1cccs1 [Example 142, 3-(R)(bis-thiophen-2-ylmethylcarbamoyloxy)-1-(3-phenylpropyl)-1-azoniabicyclo [2.2.2]octane; bromide] | 17.8
O=C(O[C@H]1CN2CCC1CC2)N(Cc1ccccc1)c1ccccc1 [Example 1, Benzylphenylcarbamic acid 1-azabicyclo[2.2.2]oct-3-(R)yl ester] | 5
CCCCN(C(=O)O[C@H]1C[N+]2(CC=Cc3ccccc3)CCC1CC2)c1ccccc1.[Br-] [Example 58, 3-(R)(Butylphenylcarbamoyloxy)-1-(3-phenylallyl)-1-azoniabicyclo[2.2.2]octane; bromide] | 8
O=C(O[C@H]1CN2CCC1CC2)N(Cc1ccco1)Cc1ccco1 [Example 156, bis-Furan-2-ylmethylcarbamic acid 1-azabicyclo[2.2.2]oct-3-(R)yl ester] | 18
O=C(O[C@H]1C[N+]2(CCCc3cccs3)CCC1CC2)N(Cc1cccs1)Cc1cccs1 [Example 146, 3-(R)(bis-thiophen-2-ylmethylcarbamoyloxy)-1-(3-thiophen-2-ylpropyl)-1-azonia bicyclo[2.2.2]octane; bromide] | 14.4
3-(R)(Phenylthiophen-3-ylmethylcarbamoyloxy)-1-(2-phenoxyethyl)-1-azonia bicyclo[2.2.2]octane; bromide [Example 136] | 9
CCCCN(C(=O)O[C@H]1C[N+]2(CCOc3ccccc3)CCC1CC2)c1ccccc1 [Example 79, 3-(R)(Butylphenylcarbamoyloxy)-1-(2-phenoxyethyl)-1-azoniabicyclo[2.2.2]octane; bromide] | 14
O=C(O[C@H]1C[N+]2(CCCc3ccccc3)CCC1CC2)N(Cc1ccccc1)c1ccccc1.[Br-] [Example 31, 3-(R)(Benzylphenylcarbamoyloxy)-1-(3-phenylpropyl)-1-azoniabicyclo[2.2.2]octane; bromide] | 8
O=C(O[C@H]1CN2CCC1CC2)N(Cc1cccs1)c1ccccc1 [Example 82, Phenylthiophen-2-ylmethylcarbamic acid 1-azabicyclo[2.2.2]oct-3-(R)yl ester] | 4.5

Test system: not given
Assay: not given
Settings: not given

Compound | melting point [°C]
C=CC[N+]12CCC(CC1)[C@@H](OC(=O)N(CCCC)c1ccccc1)C2.[Br-] | 141
O=C(O[C@H]1C[N+]2(CC=Cc3ccccc3)CCC1CC2)N(Cc1ccccc1)c1ccccc1.[Br-] [Example 5, 3-(R)(Benzylphenylcarbamoyloxy)-1-(3-phenylallyl)-1-azoniabicyclo[2.2.2]octane; bromide] | 129
CCCCN(C(=O)O[C@H]1C[N+]2(CCc3ccccc3)CCC1CC2)c1ccccc1.[Br-] | 139
C=CC[N+]12CCC(CC1)[C@@H](OC(=O)N(Cc1ccccc1)c1ccccc1)C2.[Br-] [Example 6, 1-Allyl-3-(R)(benzylphenylcarbamoyloxy)-1-azoniabicyclo[2.2.2]octane; bromide] | 70
CCCCN(C(=O)O[C@H]1C[N+]2(CCCc3ccccc3)CCC1CC2)c1ccccc1.[Br-] | 120
CCCCN(C(=O)O[C@H]1C[N+]2(CC=Cc3ccccc3)CCC1CC2)c1ccccc1.[Br-] [Example 58, 3-(R)(Butylphenylcarbamoyloxy)-1-(3-phenylallyl)-1-azoniabicyclo[2.2.2]octane; bromide] | 144
O=C(O[C@H]1C[N+]2(CCc3ccccc3)CCC1CC2)N(Cc1ccccc1)c1ccccc1.[Br-] | 81
O=C(O[C@H]1C[N+]2(CCCc3ccccc3)CCC1CC2)N(Cc1ccccc1)c1ccccc1.[Br-] [Example 31, 3-(R)(Benzylphenylcarbamoyloxy)-1-(3-phenylpropyl)-1-azoniabicyclo[2.2.2]octane; bromide] | 101
O=C(O[C@@H]1C[N+]2(CCCc3ccccc3)CCC1CC2)N(Cc1ccccc1)c1ccccc1.[Br-] | 64
